Measurements from paper PMC8391421, “Identification of Novel Positive Allosteric Modulators of Neurotrophin Receptors for the Treatment of Cognitive Dysfunction” (Cells, 2021).

Tested on: C57BL/6J mice
Assay: Passive avoidance task
Type: in vivo, mouse
Procedure: The passive avoidance (PA) task is an associate learning paradigm that is based on Pavlovian fear-conditioning and instrumental conditioning and conducted as previously described in male C57BL/6J mice (n = 7–8/group) from Charles River Laboratories, Sulzfeld, Germany. Vehicle or ACD855 (1, 3 or 10 mg/kg), formulated in 20% DMSO in 0.1 M sodium phosphate buffer pH 8.0, was administered daily (Days 1–4) through s.c. injections (4 mL/kg body weight). ACD856 (0.1, 0.3, 1 or 3 mg/kg) was administered by a single s.c. dose on the training day (Day 4). ACD855, ACD856, ANA-12 (0.5 mg/kg, from Sigma Aldrich, Stockholm, Sweden), physostigmine (0.025 mg/kg, from Sigma Aldrich, Stockholm, Sweden), or vehicle was administered 60 min prior to training, except for when addressing the effects on consolidation, in which case, ACD856 was dosed 5 min after the training session on day 4. Moreover, on the training day (Day 4), scopolamine or the NMDA-antagonist MK-801 (both from Sigma Aldrich, Stockholm, Sweden) at 0.3 mg/kg or vehicle was administered once s.c. 30 min prior to training. No compound was administered on the test day (Day 5), except for when addressing effects on retrieval, in which case, ACD856 was dosed 30 min prior to testing on day 5. Retention latencies and time spent in the bright compartment were determined 24 h after training (Day 5).

Cc1cc(-n2c(=O)[nH]c(=O)n(C)c2=O)ccc1Oc1ccc(S(=O)(=O)C(F)(F)F)cc1 [ACD855, Toltrazuril-sulfone]
effect on scopolamine-induced memory impairment (time spent in bright compartment) (3 or 10 mg/kg s.c. once daily for four days, scopolamine 0.3 mg/kg): significantly attenuate | effect of ANA-12 on compound's reversal of scopolamine-induced memory impairment (ANA-12 0.5 mg/kg s.c.): blocked by ANA-12 | effect on MK-801-induced memory impairment (MK-801 0.3 mg/kg): ameliorate | effect of combined administration with physostigmine on scopolamine-induced memory impairment (low dose of compound plus physostigmine 0.025 mg/kg): significantly reverse | effect of low dose alone on scopolamine-induced memory impairment (low doses given by themselves, physostigmine 0.025 mg/kg): no significant effect | pro-cognitive effects and other behavioral parameters in naive animals (naïve young healthy animals): none of the two compounds had any pro-cognitive effects
